# Reference: paper PMC6787515 (Journal of Cellular and Molecular Medicine, 2019)
# Assays:
# Format in all cases: biochemical, Staphylococcus aureus
# β‐lactamase N1 [1] = molecular target: T1, β‐lactamase N1; assay: nitrocefin hydrolysis assay, purified mutant enzyme
# T1 construct: gene rnjB
# β‐lactamase N1 [2] = molecular target: T1, β‐lactamase N1; assay: as above; remark: listed apart in the source
# β‐lactamase N1 [3] = molecular target: T1, β‐lactamase N1; assay: nitrocefin hydrolysis assay, purified recombinant enzyme
smiles,measurement,setting,value
"O=C(O[C@@H]1Cc2c(O)cc(O)cc2O[C@@H]1c1cc(O)c(=O)c2c(O)c(O)cc([C@H]3Oc4cc(O)cc(O)c4C[C@H]3OC(=O)c3cc(O)c(O)c(O)c3)c2c1)c1cc(O)c(O)c(O)c1 [TFDG, Theaflavin‐3,3´‐digallate]",IC50,β‐lactamase N1 [1],30.13 µg/mL
same,IC50,β‐lactamase N1 [2],28.91 µg/mL
same,IC50,β‐lactamase N1 [3],5.82 µg/mL
